Where “and” joins values, the source holds several entries; their conditions need not be identical. Identical values can stand only once.
System: ZR-75-1 cells
Assay: NanoString human kinome mRNA quantification
Format: cell-based
Description: Human mRNAs were hybridised to NanoString human kinome and control code sets, then subjected to quantification using NanoString software. […] To permit data compaction, and simple kinome‐wide comparisons, the fold changes are log2 transformed. […] Cell pellets were resuspended at a concentration of ~6,500 cells/μl in RLT buffer (Qiagen). […] For total copy numbers, triplicate normalised count values were averaged, and to calculate fold induction, means were divided by triplicate mean values from matched DMSO controls. P‐values were calculated using unpaired t‐test (GraphPad Prism software) by employing treated and control count data for each kinase mRNA.

## NC1(c2ccc(-c3nc4ccn5c(=O)[nH]nc5c4cc3-c3ccccc3)cc2)CCC1 [MK-2206]
1 μM, day 5, ZR-75-1, DMSO control 230th
  rank of SGK3 mRNA expression in the 536-member kinase panel: 94
AAK1 mRNA, average of 3 replicates
  AAK1 Average normalised counts: 782.49
AAK1 mRNA, single replicates
  AAK1 Normalised counts: 765.01 and 806.95 and 775.51
AATK mRNA, average of 3 replicates
  AATK Average normalised counts: 168.267
AATK mRNA, single replicates
  AATK Normalised counts: 168.73 and 152.79 and 183.28
ABL1 mRNA, average of 3 replicates
  ABL1 Average normalised counts: 597.787
ABL1 mRNA, single replicates
  ABL1 Normalised counts: 594.12 and 597.59 and 601.65
ABL2 mRNA, average of 3 replicates
  ABL2 Average normalised counts: 904.847
ABL2 mRNA, single replicates
  ABL2 Normalised counts: 861.36 and 926.84 and 926.34
ACVR1B mRNA, single replicates
  ACVR1B Normalised counts: 285.69
ACVR1C mRNA, average of 3 replicates
  ACVR1C Average normalised counts: 2.92
ACVR1C mRNA, single replicates
  ACVR1C Normalised counts: 2.39 and 2.5 and 3.87
ACVR1 mRNA, single replicates
  ACVR1 Normalised counts: 276.15 and 273.79
ACVR2A mRNA, average of 3 replicates
  ACVR2A Average normalised counts: 137.863
ACVR2A mRNA, single replicates
  ACVR2A Normalised counts: 146 and 131.94 and 135.65
ACVR2B mRNA, average of 3 replicates
  ACVR2B Average normalised counts: 119.837
ACVR2B mRNA, single replicates
  ACVR2B Normalised counts: 122.37 and 110.22 and 126.92
ACVRL1 mRNA, average of 3 replicates
  ACVRL1 Average normalised counts: 5.713
ACVRL1 mRNA, single replicates
  ACVRL1 Normalised counts: 4.2 and 5.1 and 7.84
ADCK1 mRNA, average of 3 replicates
  ADCK1 Average normalised counts: 103.98
ADCK1 mRNA, single replicates
  ADCK1 Normalised counts: 96.01 and 112.83 and 103.1
ADCK2 mRNA, average of 3 replicates
  ADCK2 Average normalised counts: 571.397
ADCK2 mRNA, single replicates
  ADCK2 Normalised counts: 535.04 and 567.18 and 611.97
ADCK3 mRNA, average of 3 replicates
  ADCK3 Average normalised counts: 173.12
ADCK3 mRNA, single replicates
  ADCK3 Normalised counts: 181.45 and 164.95 and 172.96
ADCK4 mRNA, average of 3 replicates
  ADCK4 Average normalised counts: 488.637
ADCK4 mRNA, single replicates
  ADCK4 Normalised counts: 486.86 and 483.78 and 495.27
ADCK5 mRNA, average of 3 replicates
  ADCK5 Average normalised counts: 272.407
ADCK5 mRNA, single replicates
  ADCK5 Normalised counts: 276.89 and 275.28
ADRBK1 mRNA, average of 3 replicates
  ADRBK1 Average normalised counts: 4377.38
ADRBK1 mRNA, single replicates
  ADRBK1 Normalised counts: 4312.7 and 4473.91 and 4345.53
ADRBK2 mRNA, average of 3 replicates
  ADRBK2 Average normalised counts: 361.227
ADRBK2 mRNA, single replicates
  ADRBK2 Normalised counts: 361.43 and 359.55 and 362.7
AKT1 mRNA, average of 3 replicates
  AKT1 Average normalised counts: 6880.64
AKT1 mRNA, single replicates
  AKT1 Normalised counts: 6785.99 and 6852.52 and 7003.4
AKT2 mRNA, average of 3 replicates
  AKT2 Average normalised counts: 2329.47
AKT2 mRNA, single replicates
  AKT2 Normalised counts: 2337.52 and 2309.87 and 2341.02
AKT3 mRNA, average of 3 replicates
  AKT3 Average normalised counts: 1.89
AKT3 mRNA, single replicates
  AKT3 Normalised counts: 2.39 and 1 and 2.28
ALK mRNA, average of 3 replicates
  ALK Average normalised counts: 1
ALK mRNA, single replicates
  ALK Normalised counts: 1
ALPK2 mRNA, average of 3 replicates
  ALPK2 Average normalised counts: 16.6133
ALPK2 mRNA, single replicates
  ALPK2 Normalised counts: 12.38 and 22.48 and 14.98
ALPK3 mRNA, average of 3 replicates
  ALPK3 Average normalised counts: 74.1967
ALPK3 mRNA, single replicates
  ALPK3 Normalised counts: 85.1 and 68.52 and 68.97
AMHR2 mRNA, average of 3 replicates
  AMHR2 Average normalised counts: 1
AMHR2 mRNA, single replicates
  AMHR2 Normalised counts: 1
ANKK1 mRNA, average of 3 replicates
  ANKK1 Average normalised counts: 2.167
ANKK1 mRNA, single replicates
  ANKK1 Normalised counts: 1 and 1.63 and 3.87
ARAF mRNA, average of 3 replicates
  ARAF Average normalised counts: 918.807
ARAF mRNA, single replicates
  ARAF Normalised counts: 894.08 and 950.29 and 912.05
ATM mRNA, average of 3 replicates
  ATM Average normalised counts: 3.063
ATM mRNA, single replicates
  ATM Normalised counts: 5.11 and 1 and 3.08
ATR mRNA, average of 3 replicates
  ATR Average normalised counts: 668.797
ATR mRNA, single replicates
  ATR Normalised counts: 672.29 and 661 and 673.1
AURKA mRNA, average of 3 replicates
  AURKA Average normalised counts: 948.07
AURKA mRNA, single replicates
  AURKA Normalised counts: 903.17 and 1006.76 and 934.28
AURKB mRNA, average of 3 replicates
  AURKB Average normalised counts: 1225.21
AURKB mRNA, single replicates
  AURKB Normalised counts: 1232.22 and 1235.24 and 1208.17
AURKC mRNA, average of 3 replicates
  AURKC Average normalised counts: 8.06
AURKC mRNA, single replicates
  AURKC Normalised counts: 7.84 and 7.71 and 8.63
AXL mRNA, average of 3 replicates
  AXL Average normalised counts: 5.22
AXL mRNA, single replicates
  AXL Normalised counts: 3.29 and 7.71 and 4.66
BCKDK mRNA, average of 3 replicates
  BCKDK Average normalised counts: 3561.04
BCKDK mRNA, single replicates
  BCKDK Normalised counts: 3631.88 and 3513.08 and 3538.17
BCR mRNA, average of 3 replicates
  BCR Average normalised counts: 1460.29
BCR mRNA, single replicates
  BCR Normalised counts: 1503.09 and 1393.35 and 1484.43
BLK mRNA, average of 3 replicates
  BLK Average normalised counts: 26.4533
BLK mRNA, single replicates
  BLK Normalised counts: 26.93 and 30.3 and 22.13
BMP2K mRNA, average of 3 replicates
  BMP2K Average normalised counts: 406.717
BMP2K mRNA, single replicates
  BMP2K Normalised counts: 374.15 and 422.97 and 423.03
BMPR1A mRNA, average of 3 replicates
  BMPR1A Average normalised counts: 4758.43
BMPR1A mRNA, single replicates
  BMPR1A Normalised counts: 4812.63 and 4697.18 and 4765.49
BMPR1B mRNA, average of 3 replicates
  BMPR1B Average normalised counts: 1516.82
BMPR1B mRNA, single replicates
  BMPR1B Normalised counts: 1517.63 and 1515.84 and 1516.98
BMPR2 mRNA, average of 3 replicates
  BMPR2 Average normalised counts: 568.93
BMPR2 mRNA, single replicates
  BMPR2 Normalised counts: 569.58 and 587.16 and 550.05
BMX mRNA, average of 3 replicates
  BMX Average normalised counts: 1
BMX mRNA, single replicates
  BMX Normalised counts: 1
BRAF mRNA, average of 3 replicates
  BRAF Average normalised counts: 627.873
BRAF mRNA, single replicates
  BRAF Normalised counts: 623.21 and 634.94 and 625.47
BRD2 mRNA, average of 3 replicates
  BRD2 Average normalised counts: 2991.5
BRD2 mRNA, single replicates
  BRD2 Normalised counts: 2957.43 and 3009.21 and 3007.86
BRD3 mRNA, average of 3 replicates
  BRD3 Average normalised counts: 697.943
BRD3 mRNA, single replicates
  BRD3 Normalised counts: 683.2 and 692.28 and 718.35
BRD4 mRNA, average of 3 replicates
  BRD4 Average normalised counts: 2588.8

From PMC5007552, “The hVps34‐SGK3 pathway alleviates sustained PI3K/Akt inhibition by stimulating mTORC1 and tumour growth” (The EMBO Journal, 2016)
